Literature values in patent US20150209317A1, “Plant Extracts for Improving Cognitive Function” (Kemin Industries, Inc., priority 2014, published 2015).

Legend:
aging mice = conditions: RA administration to aging mice
[1] = subchronic administration (Park 2010)

SMILES: O=C(/C=C/c1ccc(O)c(O)c1)O[C@H](Cc1ccc(O)c(O)c1)C(=O)O [Rosmarinic acid]
- Catalase (CAT) activity in the brain (aging mice): increased
- Malondialdehyde (MDA) in the brain (aging mice): decreasing
- Superoxide dismutase (SOD) activity in the brain (aging mice): increased
- Memory in the Morris water maze spatial task [1]: improved memory
